Measured values reported in patent US20200129528A1, “METHODS FOR TREATING BLOOD PRESSURE CONDITIONS USING AMINOSTEROL COMPOSITIONS” (Enterin, Inc., priority 2018, published 2020).
Several values for one entry are separate records, joined by “and”; a condition that tells them apart may be missing. Identical values can stand only once.

Tests used:
Assay type in all cases: in vivo, human
[1] = test system: patients with PD and constipation; assay: Phase 2 trial: adverse events in all 44 dosed patients
Experimental: Fifty patients were enrolled and 44 were dosed. In Stage 1, 10 patients were dosed, 1 (10%) withdrew prior to completion and 9 (90%) completed dosing. In stage 2, 6 (15%) patients had ≥3 CSBM/week at the end of the run-in period and were excluded, 34 patients were dosed and bowel response was assessable in 31 (91%). Two patients (5.8%) were terminated prior to completion because of recurrent dizziness, and 3 others withdrew during dosing (8.8%): 2 because of diarrhea and 1 because of holiday. Fifteen patients were randomized.
Most AEs were confined to the GI tract (88% in Stage 1 and 63% in Stage 2). The most common AE was nausea which occurred in 4/10 (40%) patients in Stage 1 and in 18/34 (52.9%) in Stage 2 (Table 2). Diarrhea occurred in 4/10 (40%) patients in Stage 1 and 15/34 (44%) in Stage 2. One patient withdrew because of recurrent diarrhea. Other GI related AEs included abdominal pain 11/44 […], flatulence 3/44 (6.8%), vomiting 3/44 (6.8%), worsening of acid reflux 2/44 (4.5%), and worsening of hemorrhoids 1/44 (2.2%). […] The only other noteworthy AE was dizziness 8/44 (18%). Dizziness was graded as moderate in one patient who was receiving an alpha-adrenergic blocking agent (Terazosin). This patient was withdrawn from the study and recovered spontaneously.

[2] = test system: patients with PD and constipation; assay: Systolic blood pressure in Stage 2 of the clinical study; details: for change of blood pressure in subjects with high blood pressure / change of blood pressure in subjects with low blood pressure: Stage 2, post medication / fixed dose versus baseline
Excerpt: Subjects in Stage 2 of the clinical study described in Example 1 had their systolic blood pressure measured at various points during the clinical study. […]

[3] = test system: patients with PD and constipation; assay: Systolic blood pressure in Stage 1 (single dose); details: lying position
Excerpt: Normalization refers to lowering high blood pressure and raising low blood pressure into normal ranges. The numbers shown in the graph represent baseline BP then highest treatment BP, both in the lying position, pre-medication. The result is significant despite the small sample size (p=0.01).

[4] = test system: patients with PD and constipation; assay: Phase 2 trial Stage 2: bowel function with daily oral dosing escalated to a fixed dose
Experimental: Following successful screening, all subjects underwent a 14-day run-in period where the degree of constipation was assessed through a validated daily log (Zinsmeister et al. 2013) establishing baseline CSBMs/week. Subjects with an average of <3 CSBMs/week proceeded to dosing.
In Stage 2, 34 patients were evaluated. […] This dose was then maintained (“fixed dose”) fir an additional 3-5 days.
The primary efficacy outcome variable was whether or not a subject was a “success” or “failure”. This is an endpoint based on subject diary entries for the “fixed dose” period prior to the endpoint assessment defined as average complete stool frequency increase by 1 or more over baseline, or 3 or more complete spontaneous stools/week. The subject was deemed a “success” if s/he met one or more of the criteria listed above, otherwise the subject was deemed a “failure”. The primary analysis was based on all subjects with a baseline assessment and an assessment at the end of the “fixed-dose” period and was a comparison of the proportion of successes with 0.10 (the null hypothesis corresponding to no treatment effect).
The proportion of subjects for whom the drug was a success was estimated with a binomial point estimate and corresponding 95% confidence interval. A secondary analysis compared the proportions of subjects who are deemed a success at the end of the randomized fixed-dose period between those randomized to the squalamine (ENT-01) arm and those randomized to the placebo arm. A Fisher's exact test was used to compare the proportions of subjects who were deemed a success at the end of randomization period between the two randomized arms

[5] = test system: patients with PD and constipation; assay: Phase 2 trial Stage 1: adverse events; details: Stage 1, 10 dosed
Excerpt: Tolerability limits included diarrhea or vomiting.

[6] = Stage 2, individual subjects, one line per subject

SMILES: CC(C)[C@@H](CC[C@@H](C)[C@H]1CC[C@H]2[C@@H]3[C@H](O)C[C@H]4C[C@@H](NCCCNCCCCN)CC[C@]4(C)[C@H]3CC[C@]12C)OS(=O)(=O)O (single isomer, unassigned) [ENT-01, squalamine]
- outcome of all other AEs ([1]; human, in vivo): resolved spontaneously without discontinuation
- lower GI bleed (serious adverse event), relation to drug ([1]; one patient, during the withdrawal period, on aspirin, naproxen and clopidogrel): unrelated to study medication
- BP at FD-V4 pre dose [2, 6]: 122 and 147 and 144 and 154 and 115 and 110 (2×) and 138 and 130 and 121 and 113
- BP at V4 + 2 hrs post dose [2, 6]: 113 and 163 and 138 and 105 and 11 and 132 (2×) and 126 and 131 and 115
- final BP- v3, mean ([2]; Stage 2, mean of series, initial mean 133.4219, p=0.011638): 126.3
- change of blood pressure in subjects with high blood pressure [2]: decreased blood pressure
- change of blood pressure in subjects with low blood pressure [2]: increased blood pressure
- change of blood pressure in subjects with high blood pressure ([2]; listed as aminosterol): lower blood pressure
- change of blood pressure in subjects with low blood pressure ([2]; listed as aminosterol): higher blood pressure
- effect on systolic BP [3]: normalization of systolic BP
- decrease of rescue medication use, baseline to fixed dose ([4]; Stage 2, 1.8/week to 0.3): 83%
- improvement of SBM, baseline to fixed dose ([4]; Stage 2, 2.6 to 4.5): 73%
- Ease of passage (Ease of evacuation scale 1-7) ([4]; Stage 2, at fixed dose, mean (SD), baseline 3.2, listed as aminosterol): 3.7
- Abdominal pain, mild [5]: 2(20) n, %
- Abdominal pain, moderate [5]: 3(30) n, %
- Diarrhea, mild [5]: 1(10) n, %
- Diarrhea, moderate [5]: 3(30) n, %
- Flatulence, mild [5]: 2(20) n, %
- Headache, mild [5]: 1(10) n, %
- Vomiting, mild [5]: 1(10) n, %
- Blood in urine, mild ([5]; unrelated to ENT-01): 1(10) n, %
- Loss of appetite, mild ([5]; unrelated to ENT-01): 1(10) n, %
